Data as given in patent US9206191B2, “Indazoles for the treatment and prophylaxis of respiratory syncytial virus infection” (Hoffmann-La Roche Inc., priority 2012, dated 2015).

Columns and labels:
[1] = test system: RSV Long strain; assay: Viral Cytopathic Effect (CPE) Assay; format: cell-based; conditions: human respiratory syncytial virus, 144 h, cell viability after 6 days, Cell Counting kit-8
[2] = single dose PK in male ICR mouse (IV and PO); format: in vivo; conditions: male ICR mice; for AUC(0-t) / half-life: mouse, plasma
Method: The single dose PK in male ICR mouse was performed to assess their pharmacokinetic properties. Two groups of animals were dosed via either bolus intravenous (IV) or oral gavage (PO) of the respective compound. The animals for oral administration were fasted overnight prior to dosing and food was resumed 4 hours postdose. Blood samples (approximately 400 μL) were collected via cardiac puncture after euthanasia by carbon dioxide inhalation at 2 min, 5 min, 15 min, 30 min, 1 h, 2 h, 4 h, 6 h, 8 h, and 24 h postdose for IV group, and at 5 min, 15 min, 30 min, 1 h, 2 h, 4 h, 6 h, 8 h, and 24 h postdose for PO group. Blood samples were placed into tubes containing sodium heparin and centrifuged at 8000 rpm for 6 minutes at 4° C. to separate plasma from the samples. Following centrifugation, the resulting plasma was transferred to clean tubes for bioanalysis on LC/MS/MS. The pharmacokinetic parameters were calculated using non-compartmental module of WinNonlin® Professional 5.2.

[3] = test system: RSV infection; conditions: intramuscularly at 15 mg/kg once a month for the duration of RSV season; selected infants; cited from earlier work
[4] = test system: RSV; conditions: Phase III clinical trials; cited from earlier work

Row | Compound | EC50 [1] | other results
1 | CS(=O)(=O)c1nn(Cc2nc3cc(Cl)ccc3n2CC2COC2)c2cnccc12 [Example 2-22, 1-{[5-Chloro-1-(oxetan-3-ylmethyl)-1H-benzimidazol-2-yl]methyl}-3-(methylsulfonyl)-1H-pyrazolo[3,4-c]pyridine] | 0.006 µM | CLz ([2]; IV (1 mg/Kg)): 1.01 L/h/kg; F ([2]; PO (12.2 mg/kg)): 23.8%; AUC(0-t) ([2]; IV (1 mg/Kg)): 0.976 µg·h/mL; half-life ([2]; IV (1 mg/Kg)): 1.55 h; AUC(0-t) ([2]; PO (12.2 mg/kg)): 2.43 µg·h/mL; half-life ([2]; PO (12.2 mg/kg)): 2.45 h
2 | palivizumab: a humanized monoclonal antibody against RSV fusion (F) protein approved for prophylaxis in high-risk infants |  | reduction of hospitalization rate caused by RSV infection [3]: 45-55%
3 | motavizumab: A newer version monoclonal antibody, designed as potential replacement of palivizumab |  | benefit over palivizumab [4]: failed to show additional benefit over palivizumab
4 | CC(C)S(=O)(=O)c1nn(Cc2nc3cc(Cl)ccc3n2CCCS(C)(=O)=O)c2ccccc12 [Example 1-9, 1-({5-Chloro-1-[3-(methylsulfonyl)propyl]-1H-benzimidazol-2-yl}methyl)-3-(propan-2-ylsulfonyl)-1H-indazole] | 0.0744 µM | 
5 | CCS(=O)(=O)c1nn(Cc2nc3cc(Cl)ccc3n2CCCS(C)(=O)=O)c2ccccc12 [Example 1-10, 1-({5-Chloro-1-[3-(methylsulfonyl)propyl]-1H-benzimidazol-2-yl}methyl)-3-(ethylsulfonyl)-1H-indazole] | 0.0378 µM | 
6 | CS(=O)(=O)c1nn(Cc2nc3cc(Cl)ccc3n2C2CCS(=O)(=O)C2)c2ccccc12 (stereo not shown) [Example 2-2, 1-{[5-Chloro-1-(1,1-dioxidotetrahydrothiophen-3-yl)-1H-benzimidazol-2-yl]methyl}-3-(methylsulfonyl)-1H-indazole] | 0.00786 µM | 
7 | CS(=O)(=O)c1nn(Cc2nc3cc(Cl)ccc3n2C2CCNC(=O)C2)c2cnccc12 (stereo not shown) [Example 2-4, 4-(5-Chloro-2-{[3-(methylsulfonyl)-1H-pyrazolo[3,4-c]pyridin-1-yl]methyl}-1H-benzimidazol-1-yl)piperidin-2-one] | 0.00735 µM | 
8 | CC(C)S(=O)(=O)c1nn(Cc2nc3cc(Cl)ccc3n2CCS(C)(=O)=O)c2ccccc12 [Example 1-13, 1-({5-Chloro-1-[2-(methylsulfonyl)ethyl]-1H-benzimidazol-2-yl}methyl)-3-(propan-2-ylsulfonyl)-1H-indazole] | 0.312 µM | 
9 | CS(=O)(=O)CCCn1c(Cn2cc(S(=O)(=O)C3CC3)c3ccccc32)nc2cc(Cl)ccc21 [Example 1-7, 5-Chloro-2-{[3-(cyclopropylsulfonyl)-1H-indol-1-yl]methyl}-1-[3-(methylsulfonyl)propyl]-1H-benzimidazole] | 0.227 µM | 
10 | CS(=O)(=O)c1nn(Cc2nc3cc(Cl)ccc3n2C2CCS(=O)(=O)C2)c2cnccc12 (stereo in doubt) [Example 2-1, 1-({5-Chloro-1-[(3R)-1,1-dioxidotetrahydrothiophen-3-yl]-1H-benzimidazol-2-yl}methyl)-3-(methylsulfonyl)-1H-pyrazolo[3,4-c]pyridine] | 0.00899 µM | 
11 | CS(=O)(=O)c1nn(Cc2nc3cc(Cl)ccc3n2C2COC2)c2cnccc12 [Example 2-5, 1-{[5-Chloro-1-(oxetan-3-yl)-1H-benzimidazol-2-yl]methyl}-3-(methylsulfonyl)-1H-pyrazolo[3,4-c]pyridine] | 0.0224 µM | 

Second part, led by results:

Row | EC50 [1] | Compound | other results
12 | 0.0191 µM | CS(=O)(=O)c1nn(Cc2nc3cc(Cl)ccc3n2CCC(F)(F)F)c2cnccc12 [Example 2-21, 1-{[5-Chloro-1-(3,3,3-trifluoropropyl)-1H-benzimidazol-2-yl]methyl}-3-(methylsulfonyl)-1H-pyrazolo[3,4-c]pyridine] | CLz ([2]; IV (1.65 mg/Kg)): 0.636 L/h/kg; F ([2]; PO (8.27 mg/kg)): 37.1%; AUC(0-t) ([2]; IV (1.65 mg/Kg)): 2.59 µg·h/mL; half-life ([2]; IV (1.65 mg/Kg)): 2.82 h; AUC(0-t) ([2]; PO (8.27 mg/kg)): 4.8 µg·h/mL; half-life ([2]; PO (8.27 mg/kg)): 3.16 h
13 | 0.0187 µM | CS(=O)(=O)c1nn(Cc2nc3cc(Cl)ccc3n2-c2ccc(F)nc2)c2cnccc12 [Example 3-2, 1-{[5-Chloro-1-(6-fluoropyridin-3-yl)-1H-benzimidazol-2-yl]methyl}-3-(methylsulfonyl)-1H-pyrazolo[3,4-c]pyridine] | 
14 | 0.0179 µM | C[C@@]1(O)CC[C@H](n2c(Cn3nc(S(C)(=O)=O)c4ccncc43)nc3cc(Cl)ccc32)C1 (relative stereo) [Example 2-43, cis-3-(5-chloro-2-{[3-(methylsulfonyl)-1H-pyrazolo[3,4-c]pyridin-1-yl]methyl}-1H-benzimidazol-1-yl)-1-methylcyclopentanol] | 
15 | 0.005 µM | CS(=O)(=O)c1nn(Cc2nc3cc(Cl)ccc3n2CCCC(F)(F)F)c2cnccc12 [Example 4-3, 1-{[5-Chloro-1-(4,4,4-trifluorobutyl)-1H-benzimidazol-2-yl]methyl}-3-(methylsulfonyl)-1H-pyrazolo[3,4-c]pyridine] | CLz ([2]; IV (2 mg/kg)): 2.6 L/h/kg; F ([2]; PO (6 mg/kg)): 46.0%; AUC(0-t) ([2]; IV (2 mg/kg)): 0.76 µg·h/mL; half-life ([2]; IV (2 mg/kg)): 1.26 h; AUC(0-t) ([2]; PO (6 mg/kg)): 1.05 µg·h/mL; half-life ([2]; PO (6 mg/kg)): 0.831 h
16 | 0.00332 µM | CS(=O)(=O)c1nn(Cc2nc3cc(Cl)ccc3n2[C@H]2C[C@H](O)C2)c2cnccc12 [Example 2-32, trans-3-(5-Chloro-2-{[3-(methylsulfonyl)-1H-pyrazolo[3,4-c]pyridin-1-yl]methyl}-1H-benzimidazol-1-yl)cyclobutanol] | 
17 | 0.769 µM | CS(=O)(=O)c1nn(Cc2nc3cc(Cl)ccc3n2C2CCC(O)C2)c2c[n+]([O-])ccc12 (stereo not shown) [Example 2-12, 3-(5-Chloro-2-{[3-(methylsulfonyl)-6-oxido-1H-pyrazolo[3,4-c]pyridin-1-yl]methyl}-1H-benzimidazol-1-yl)cyclopentanol] | 
18 | 0.00697 µM | CS(=O)(=O)c1nn(Cc2nc3cc(Cl)ccc3n2C2CCC(F)(F)C2)c2ccccc12 (stereo not shown) [Example 2-9, 1-{[5-Chloro-1-(3,3-difluorocyclopentyl)-1H-benzimidazol-2-yl]methyl}-3-(methylsulfonyl)-1H-indazole] | 
19 | 0.227 µM | C[C@H](c1nc2cc(Cl)ccc2n1CCC(F)(F)F)n1nc(S(C)(=O)=O)c2ccncc21 [Example 15-1, 1-{(1R)-1-[5-chloro-1-(3,3,3-trifluoropropyl)-1H-benzimidazol-2-yl]ethyl}-3-(methylsulfonyl)-1H-pyrazolo[3,4-c]pyridine] | 
20 | 0.00753 µM | CS(=O)(=O)c1nn(Cc2nc3cc(Cl)ccc3n2CCCO)c2cnccc12 [Example 2-27, 3-(5-Chloro-2-{[3-(methylsulfonyl)-1H-pyrazolo[3,4-c]pyridin-1-yl]methyl}-1H-benzimidazol-1-yl)propan-1-ol] | 
21 | 0.00757 µM | CS(=O)(=O)c1nn(Cc2nc3cc(Cl)ccc3n2C2CCOC2)c2cnccc12 (stereo not shown) [Example 2-28, 1-{[5-Chloro-1-(tetrahydrofuran-3-yl)-1H-benzimidazol-2-yl]methyl}-3-(methylsulfonyl)-1H-pyrazolo[3,4-c]pyridine] | 
22 | 0.0361 µM | CS(=O)(=O)c1nn(Cc2nc3cc(Cl)ccc3n2C2CCOC2)c2ccccc12 (stereo not shown) [Example 2-8, 1-{[5-Chloro-1-(tetrahydrofuran-3-yl)-1H-benzimidazol-2-yl]methyl}-3-(methylsulfonyl)-1H-indazole] | 
